# Assay results from patent publication US20070003481A1, “Method and composition to individualize Levodopa/Carbidopa therapy using a breath test” (priority 2005, published 2007).
# How the values were obtained:
# [1] = target: T1, dopamine decarboxylase (DDC) (Homo sapiens, UniProt P20711); assay: 13CO2 breath test after 13C-labeled LD, with CD pretreatment or simultaneous CD; assay type: in vivo
# T1 construct: from tissue; host or cells: peripheral tissues of living human subjects (liver, kidney, gastrointestinal tract, capillary endothelium)
# T1 sequence (P20711 1-480): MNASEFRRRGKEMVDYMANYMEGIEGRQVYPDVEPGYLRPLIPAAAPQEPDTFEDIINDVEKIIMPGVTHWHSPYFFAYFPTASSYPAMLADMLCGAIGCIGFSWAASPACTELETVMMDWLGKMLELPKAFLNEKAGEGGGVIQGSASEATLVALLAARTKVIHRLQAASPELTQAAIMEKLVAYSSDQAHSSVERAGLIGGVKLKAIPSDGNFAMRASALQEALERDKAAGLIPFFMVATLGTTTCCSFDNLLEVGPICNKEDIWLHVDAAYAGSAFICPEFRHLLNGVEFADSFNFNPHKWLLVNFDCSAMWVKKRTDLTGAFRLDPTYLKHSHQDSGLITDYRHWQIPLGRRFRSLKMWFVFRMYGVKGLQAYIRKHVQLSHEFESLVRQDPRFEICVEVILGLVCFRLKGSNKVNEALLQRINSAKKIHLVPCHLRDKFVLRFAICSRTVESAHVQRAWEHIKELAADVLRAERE
# Protocol: ^13CO2 and ^12CO2 in exhaled breath samples is measured by IR spectrometry using the UBiT-IR300 (Meretek Diagnostics, Lafayette, CO; ^13CO2 urea breath analyzer instruction manual. Lafayette, CO: Meretek Diagnostics; 2002; A1-A2)^12 The amount of ^13CO2 present in breath samples is expressed as delta over baseline (DOB) that represents a change in the ^13CO2/^12CO2 ratio of breath samples collected before and after ^13C-labeled DDC enzyme substrate ingestion, e.g., ^13C-labeled LD. [formula]
# The amount of ^13C-labeled DDC substrate absorbed and released into the breath as ^13CO2 is determined for each time point using the equation described by Amarri (Amarri et al., Clin Nutr. 14:149-54 (1995)).
# The PDR is calculated using the formula: [formula] where ^13δ=[RS/RPDB)−1]×10^3 Rs=^13C:^12C in the sample RPDB=^13C:^12C in PDB (international standard PeeDeeBelemnite)=0.0112372) P is the atom % excess n is the number of labeled carbon positions δt, δ+1, δ0 are enrichments at times t, t+1 and predose respectively C is the CO2 production rate (C=300 [mmol/h]*BSA BSA=w^0.5378*h^0.3963*0.024265 (Body Surface Area) w: Weight (kg) h: Height (cm) Cmax is the highest value of DOB from the breath curve following ^13C-labeled DDC substrate. In one embodiment of the method, the ^13C-labeled DDC substrate is ^13C-labeled LD.
# The present studies employed the ^13CO2 breath test method of the present invention to determine the optimal dose of CD required to optimally suppress peripheral metabolism of ^13C-labeled LD in individual subjects (i.e., Vlt 1 and Vlt 2). Briefly, a pre-breath test sample was collected in normal human subjects after overnight fasting (12 h) in a 1.3 L aluminum bag (Otsuka Pharmaceutical Co., Ltd., Tokyo, Japan). Briefly, normal human subjects ingested varying dosages (e.g., 25 mg-200 mg CD) 1 h prior to administration of 100 mg ^13C-labeled LD on three successive days. Breath samples were collected at specified intervals following administration of ^13C-labeled LD to determine peripheral metabolic decarboxylation of the drug. That is, breath samples were collected at 5 minutes intervals for 40 minutes, at 10 minutes intervals to 90 minutes and 120 minutes. Metabolism of ^13C-labeled LD in the absence of CD administration served as control. The results of these studies are summarized FIGS. 5-8. There is a dose response to the inhibition of peripheral DDC enzyme activity by the inhibitor CD.
# The present studies examined the effect of CD preadministration on peripheral LD metabolism in human subjects. Briefly, normal human subjects ingested varying dosages (e.g., 25 mg-200 mg CD) either simultaneously, or up to 2 h prior to administration of ^13C-labeled LD. Breath samples were collected at specified intervals following administration of ^13C-labeled LD to determine peripheral metabolic decarboxylation of the ^13C-labeled LD. Metabolism of ^13C-labeled LD in the absence of CD administration served as control. The results of these studies are summarized below in Table 1 as well as FIGS. 9-14.
# In Table 1, figures in parenthesis are percent inhibition of DDC by CD. The delta over baseline of ^13CO2 is designated as DOB. The percentage of LD dose recovered as ^13CO2 is designated as PDR. The peak breath concentration of ^13CO2 is designated as Cmax.
# Breath samples are collected at 5 min time points up to 40 min and at 10 min intervals to 90 min and at 120 min after ingestion of ^13C-labeled LD. The breath samples are collected by having the subject momentarily holding their breath for 3 seconds prior to exhaling into a sample collection bag. The breath samples are analyzed on a UBiT IR-300 spectrophotometer (Meretek, Denver, Colo.) to determine the ^13CO2/^12CO2 ratio in expired breath, or sent to a reference lab. Optionally, varying doses (10-400 mg) of CD are orally administered to the subject (10 min-6 h) prior to administration of the ^13C-labeleld LD.
# [2] = 50 mg oral CD; serum CD time course; good/rapid (N=4) and poor/slow (N=5) absorbers; cited from earlier work
# [3] = target: T2, peripheral DDC (Homo sapiens, UniProt P20711); details: CD doses used in current clinical practice; cited from earlier work
# T2 construct: host or cells: human subjects in vivo (cited study)
# T2 sequence (P20711 1-480): T1 sequence (P20711 1-480)
# [4] = subject Vlt 1, CD 25 mg 1 h prior to LD
# [5] = subject Vlt 1, CD 25 mg simultaneous with LD
# [6] = subject Vlt 1, CD 50 mg 1 h prior to LD
# [7] = subject Vlt 1, CD 50 mg simultaneous with LD
# [8] = subject Vlt 1, CD 100 mg 1 h prior to LD
# [9] = subject Vlt 1, CD 100 mg simultaneous with LD
# [10] = subject Vlt 2, CD 50 mg 1 h prior to LD
# [11] = subject Vlt 2, CD 50 mg simultaneous with LD
# [12] = subject Vlt 2, CD 100 mg 1 h prior to LD
# [13] = subject Vlt 2, CD 100 mg simultaneous with LD
# [14] = subject Vlt 2, CD 200 mg 1 h prior to LD
# [15] = subject Vlt 2, CD 200 mg simultaneous with LD
structure (smiles),measurement,setting,value
"C[C@@](Cc1ccc(O)c(O)c1)(NN)C(=O)O [CD, (−)-L-a-hydrazino-a-methyl-b-(3,4-dihydroxybenzene) propanoic acid monohydrate]","suppression of peripheral decarboxylation, simultaneous ingestion of CD/LD","[1]; 25 mg or 50 mg dose of CD and 100 mg of LD, simultaneous",did not completely suppress
same,"suppression of DDC, CD administered 1 h prior to LD dose",[1]; Vlt 1 and Vlt 2,maximal suppression
same,"inhibition of peripheral DDC enzyme activity, dependence on CD dose","[1]; Vlt 1 and Vlt 2, 25 mg-200 mg CD 1 h prior to 100 mg 13C-labeled LD",dose response
same,"level of peripheral metabolism of 13C-labeled LD, CD 1 h prior versus 2 h prior to LD",[1]; human subject,no significant difference
same,"inhibition of peripheral metabolism of 13C-labeled LD, CD prior (1 h or 2 h) compared to simultaneous",[1]; normal human subjects,greater
same,peripheral metabolism of 13C-labeled LD versus control level,"[1]; normal human subjects, all concentrations of CD tested",significantly inhibited
same,DOB20: DOB value at 20 minutes after administration of 13C-labeled LD,[1]; [4],25.8
same,PDR40: PDR value at 40 minutes after administration of 13C-labeled LD,[1]; [4],12.7%
same,percent inhibition of DDC by CD (Cmax),[1]; [4],54%
same,percent inhibition of DDC by CD (DOB20),[1]; [4],43%
same,percent inhibition of DDC by CD (PDR40),[1]; [4],57%
same,DOB20: DOB value at 20 minutes after administration of 13C-labeled LD,[1]; [5],35.6
same,PDR40: PDR value at 40 minutes after administration of 13C-labeled LD,[1]; [5],18.7%
same,percent inhibition of DDC by CD (Cmax),[1]; [5],20%
same,percent inhibition of DDC by CD (DOB20),[1]; [5],22%
same,percent inhibition of DDC by CD (PDR40),[1]; [5],37%
same,DOB20: DOB value at 20 minutes after administration of 13C-labeled LD,[1]; [6],6.8
same,PDR40: PDR value at 40 minutes after administration of 13C-labeled LD,[1]; [6],3.6%
same,percent inhibition of DDC by CD (Cmax),[1]; [6],88%
same,percent inhibition of DDC by CD (DOB20),[1]; [6],85%
same,percent inhibition of DDC by CD (PDR40),[1]; [6],88%
same,DOB20: DOB value at 20 minutes after administration of 13C-labeled LD,[1]; [7],25.5
same,PDR40: PDR value at 40 minutes after administration of 13C-labeled LD,[1]; [7],11.7%
same,percent inhibition of DDC by CD (Cmax),[1]; [7],57%
same,percent inhibition of DDC by CD (PDR40),[1]; [7],61%
same,DOB20: DOB value at 20 minutes after administration of 13C-labeled LD,[1]; [8],10.6
same,PDR40: PDR value at 40 minutes after administration of 13C-labeled LD,[1]; [8],5.3%
same,percent inhibition of DDC by CD (Cmax),[1]; [8],82%
same,percent inhibition of DDC by CD (DOB20),[1]; [8],77%
same,percent inhibition of DDC by CD (PDR40),[1]; [8],82%
same,DOB20: DOB value at 20 minutes after administration of 13C-labeled LD,[1]; [9],16.5
same,PDR40: PDR value at 40 minutes after administration of 13C-labeled LD,[1]; [9],9.1%
same,percent inhibition of DDC by CD (Cmax),[1]; [9],70%
same,percent inhibition of DDC by CD (DOB20),[1]; [9],64%
same,percent inhibition of DDC by CD (PDR40),[1]; [9],69%
same,DOB20: DOB value at 20 minutes after administration of 13C-labeled LD,[1]; [10],12.6
same,PDR40: PDR value at 40 minutes after administration of 13C-labeled LD,[1]; [10],8.3%
same,percent inhibition of DDC by CD (Cmax),[1]; [10],48%
same,percent inhibition of DDC by CD (DOB20),[1]; [10],66%
same,percent inhibition of DDC by CD (PDR40),[1]; [10],56%
same,DOB20: DOB value at 20 minutes after administration of 13C-labeled LD,[1]; [11],15.4
same,PDR40: PDR value at 40 minutes after administration of 13C-labeled LD,[1]; [11],11.0%
same,percent inhibition of DDC by CD (Cmax),[1]; [11],32%
same,percent inhibition of DDC by CD (DOB20),[1]; [11],58%
same,percent inhibition of DDC by CD (PDR40),[1]; [11],41%
same,DOB20: DOB value at 20 minutes after administration of 13C-labeled LD,[1]; [12],13.5
same,PDR40: PDR value at 40 minutes after administration of 13C-labeled LD,[1]; [12],7.8%
same,percent inhibition of DDC by CD (Cmax),[1]; [12],63%
same,percent inhibition of DDC by CD (DOB20),[1]; [12],63%
same,percent inhibition of DDC by CD (PDR40),[1]; [12],59%
same,DOB20: DOB value at 20 minutes after administration of 13C-labeled LD,[1]; [13],26.7
same,PDR40: PDR value at 40 minutes after administration of 13C-labeled LD,[1]; [13],14.1%
same,percent inhibition of DDC by CD (Cmax),[1]; [13],27%
same,percent inhibition of DDC by CD (DOB20),[1]; [13],27%
same,percent inhibition of DDC by CD (PDR40),[1]; [13],25%
same,DOB20: DOB value at 20 minutes after administration of 13C-labeled LD,[1]; [14],8.8
same,PDR40: PDR value at 40 minutes after administration of 13C-labeled LD,[1]; [14],5.7%
same,percent inhibition of DDC by CD (Cmax),[1]; [14],75%
same,percent inhibition of DDC by CD (DOB20),[1]; [14],76%
same,percent inhibition of DDC by CD (PDR40),[1]; [14],70%
same,DOB20: DOB value at 20 minutes after administration of 13C-labeled LD,[1]; [15],20.5
same,PDR40: PDR value at 40 minutes after administration of 13C-labeled LD,[1]; [15],12.0%
same,percent inhibition of DDC by CD (Cmax),[1]; [15],44%
same,percent inhibition of DDC by CD (PDR40),[1]; [15],36%
same,absorption of CD among human subjects,[2],variable
same,saturation of peripheral DDC activity,[3],not saturated
